Experimental findings from US6340758B1, “Conformationally semi-constrained quinoxaline 2,3-diones as neuroprotective agents” (Warner-Lambert Company, priority 1997, dated 2002) are described below.

As a reminder, the melting point is the temperature, or range, at which the solid turns liquid. Consider `Cc1c([N+](=O)[O-])cc2[nH]c(=O)c(=O)[nH]c2c1-c1nnc(N)o1` [Example 1, 5-(5-Amino-[1,3,4]oxadiazol-2-yl)-6-methyl-7-nitro-1,4-dihydro-quinoxaline-2,3-dione], for which the melting point was in the range of 205 to 206 °C.
